Measured values taken from ChEMBL document CHEMBL1201862, “PubChem BioAssay data set” (2004).
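Five concentrations, 48 hours, 96-well plates. Abbreviation: GI50, concentration required for 50% inhibition of growth.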 Activity calls are given as the source filed them. Rule as the data show it: active = GI50 up to about 1.1 µM and inactive = higher.

How the values were obtained:
Experiment in all cases: inhibition of tumour cell growth, NCI panel, 48 h
786-0 = test system: 786-0
A549 = test system: A549
ACHN = test system: ACHN
CCRF-CEM = test system: CCRF-CEM
COLO 205 = test system: COLO 205
DLD-1 = test system: DLD-1
DMS-114 = test system: DMS-114
DMS-273 = test system: DMS-273
HCT-116 = test system: HCT-116
HCT-15 = test system: HCT-15
HL-60 = test system: HL-60
HOP-18 = test system: HOP-18
HOP-62 = test system: HOP-62
HOP-92 = test system: HOP-92
HT-29 = test system: HT-29
IGROV-1 = test system: IGROV-1
K562 = test system: K562
KM-20L2 = test system: KM-20L2
KM12 = test system: KM12
LOX IMVI = test system: LOX IMVI
LXFL 529 = test system: LXFL 529
M14 = test system: M14
M19-MEL = test system: M19-MEL
MOLT-4 = test system: MOLT-4
Malme-3M = test system: Malme-3M
NCI-H226 = test system: NCI-H226
NCI-H23 = test system: NCI-H23
NCI-H460 = test system: NCI-H460
NCI-H522 = test system: NCI-H522
OVCAR-3 = test system: OVCAR-3
OVCAR-4 = test system: OVCAR-4
OVCAR-5 = test system: OVCAR-5
OVCAR-8 = test system: OVCAR-8
RPMI-8226 = test system: RPMI-8226
RXF 393 = test system: RXF 393
SF-268 = test system: SF-268
SF-295 = test system: SF-295
SF-539 = test system: SF-539
SK-MEL-28 = test system: SK-MEL-28
SK-MEL-2 = test system: SK-MEL-2
SK-MEL-5 = test system: SK-MEL-5
SK-OV-3 = test system: SK-OV-3
SN12C = test system: SN12C
SNB-75 = test system: SNB-75
SNB-78 = test system: SNB-78
SR = test system: SR
SW-620 = test system: SW-620
TK-10 = test system: TK-10
U-251 = test system: U-251
UACC-257 = test system: UACC-257
UACC-62 = test system: UACC-62
UO-31 = test system: UO-31
A498 = test system: A498
CAKI-1 = test system: CAKI-1
EKVX = test system: EKVX

## CC(=O)Nc1ccc(-c2nnc(SCC(=O)Nc3ccccc3C)o2)cc1
786-0
  GI50: > 100 µM (inactive)
A549
  GI50: > 100 µM (inactive)
ACHN
  GI50: > 100 µM (inactive)
CCRF-CEM
  GI50: 61.7 µM (inactive)
COLO 205
  GI50: > 100 µM (inactive)
DLD-1
  GI50: 49.8 µM (inactive)
DMS-114
  GI50: > 100 µM (inactive)
DMS-273
  GI50: 35.4 µM (inactive)
HCT-116
  GI50: 15.6 µM (inactive)
HCT-15
  GI50: 80.2 µM
HL-60
  GI50: 57.9 µM (inactive)
HOP-18
  GI50: > 100 µM (inactive)
HOP-62
  GI50: > 100 µM (inactive)
HOP-92
  GI50: 39.4 µM (inactive)
HT-29
  GI50: 38 µM (inactive)
IGROV-1
  GI50: 67 µM (inactive)
K562
  GI50: 82.6 µM (inactive)
KM-20L2
  GI50: 69.3 µM (inactive)
KM12
  GI50: 44.7 µM (inactive)
LOX IMVI
  GI50: 63 µM (inactive)
LXFL 529
  GI50: 33.3 µM (inactive)
M14
  GI50: 64.9 µM (inactive)
M19-MEL
  GI50: 70.1 µM (inactive)
MOLT-4
  GI50: 51.9 µM (inactive)
Malme-3M
  GI50: > 100 µM (inactive)
NCI-H226
  GI50: > 100 µM (inactive)
NCI-H23
  GI50: > 100 µM (inactive)
NCI-H460
  GI50: 96.8 µM (inactive)
NCI-H522
  GI50: 58.3 µM (inactive)
OVCAR-3
  GI50: 74.5 µM (inactive)
OVCAR-4
  GI50: > 100 µM (inactive)
OVCAR-5
  GI50: > 100 µM (inactive)
OVCAR-8
  GI50: > 100 µM (inactive)
RPMI-8226
  GI50: 46.3 µM (inactive)
RXF 393
  GI50: 65.3 µM (inactive)
SF-268
  GI50: > 100 µM (inactive)
SF-295
  GI50: 89.7 µM (inactive)
SF-539
  GI50: > 100 µM (inactive)
SK-MEL-28
  GI50: > 100 µM (inactive)
SK-MEL-2
  GI50: > 100 µM (inactive)
SK-MEL-5
  GI50: 93.1 µM (inactive)
SK-OV-3
  GI50: > 100 µM (inactive)
SN12C
  GI50: > 100 µM (inactive)
SNB-75
  GI50: > 100 µM (inactive)
SNB-78
  GI50: 47 µM (inactive)
SR
  GI50: 55.5 µM (inactive)
SW-620
  GI50: > 100 µM (inactive)
TK-10
  GI50: > 100 µM (inactive)
U-251
  GI50: 66.7 µM (inactive)
UACC-257
  GI50: > 100 µM (inactive)
UACC-62
  GI50: > 100 µM (inactive)
UO-31
  GI50: 52 µM (inactive)

## C1=CC(N(c2ccccc2)C2C=CCCC2)CCC1 (centres undefined)
786-0
  GI50: > 100 µM (inactive)
A498
  GI50: > 100 µM (inactive)
A549
  GI50: > 100 µM (inactive)
ACHN
  GI50: > 100 µM (inactive)
CAKI-1
  GI50: > 100 µM (inactive)
CCRF-CEM
  GI50: > 100 µM (inactive)
COLO 205
  GI50: > 100 µM (inactive)
DLD-1
  GI50: > 100 µM (inactive)
DMS-114
  GI50: 67.3 µM (inactive)
DMS-273
  GI50: > 100 µM (inactive)
EKVX
  GI50: > 100 µM (inactive)
HCT-116
  GI50: 70.1 µM (inactive)
HCT-15
  GI50: > 100 µM
HL-60
  GI50: 69.8 µM (inactive)
HOP-18
  GI50: > 100 µM (inactive)
HOP-92
  GI50: 35.8 µM (inactive)
HT-29
  GI50: > 100 µM (inactive)
IGROV-1
  GI50: > 100 µM (inactive)
K562
  GI50: > 100 µM (inactive)
KM-20L2
  GI50: 72.6 µM (inactive)
LOX IMVI
  GI50: > 100 µM (inactive)
LXFL 529
  GI50: > 100 µM (inactive)
M14
  GI50: > 100 µM (inactive)
M19-MEL
  GI50: > 100 µM (inactive)
MOLT-4
  GI50: > 10 µM (inactive)
NCI-H23
  GI50: > 100 µM (inactive)
NCI-H460
  GI50: > 100 µM (inactive)
NCI-H522
  GI50: 67 µM (inactive)
OVCAR-8
  GI50: > 100 µM (inactive)
RPMI-8226
  GI50: 32.4 µM (inactive)
RXF 393
  GI50: 48.6 µM (inactive)
SF-268
  GI50: > 100 µM (inactive)
SF-295
  GI50: 85.7 µM (inactive)
SF-539
  GI50: > 100 µM (inactive)
SK-MEL-28
  GI50: > 100 µM (inactive)
SK-MEL-5
  GI50: 84.1 µM (inactive)
SK-OV-3
  GI50: > 100 µM (inactive)
SN12C
  GI50: > 100 µM (inactive)
SW-620
  GI50: > 100 µM (inactive)
TK-10
  GI50: > 100 µM (inactive)
U-251
  GI50: > 100 µM (inactive)
UACC-62
  GI50: > 100 µM (inactive)
